Laboratory results published in patent publication US11583570B2, “Use of autoinducer-related pathway in inducing apoptosis and anti-infective therapy” (TSINGHUA UNIVERSITY, priority 2017, dated 2023).

Experiments:
lymphoblast H9 = assay: Annexin V/PI apoptosis detection, H9; assay type: cell-based, human
Description: (§1) Cell apoptosis was detected with Annexin V/PI apoptosis detection Kit. Briefly, cells were stimulated with HSLs or left untreated. 6 hrs later, cells were collected and stained with Annexin VFITC and PI for 15 min at RT, then the apoptotic effect was measured by flow cytometry. OT-I or OT-II splenocytes were pulsed with specific peptides or PMA and ionomycin mixture with or without HSLs or TNF α plus cycloheximide. 24 hrs later, cells and supernatants were collected separately. For OT-I activation, cells were stained with CD69 and CD8. For OT-II activation, cells were stained with CD69 and CD4. Cell activation was measured by flow cytometry. All supernatants were detected for IL-2 secretion by ELISA.

reticuloma A20 = assay: Annexin V/PI apoptosis detection, A20; assay type: cell-based
Description: as §1

[1] = system: FADD in complex with caspase 8; assay: FADD / caspase 8 co-immunoprecipitation; assay type: cell-based; conditions: following 3OC12 HSL treatment
Description: (§2) For FADD immunoprecipitation, 4 μg anti-mouse FADD pAb (Santa Cruz, H-181) were incubated with 100 μl protein A/G agarose for 2 hrs at RT. 3 million/ml purified CD4 T cells were stimulated with HSLs or left untreated. The cells were then collected and lysed with IP lysis buffer (50 mM HEPES pH 7.4, 150 mM NaCl, 1% NP-40, 1 mM EDTA, 1 mM PMSF, 1 mM NaF, 1 mM NaVO3 and protease inhibitor cocktails). The cell lysates were added into antibody-bead mixtures for 3 hrs at 4° C. Beads were then collected by low speed centrifugation (1000 g, 5 min) and washed 4 times with IP lysis buffer (300 mM NaCl added). After the last wash, pellets were suspended with 70 ul 2×SDS loading buffer and boiled for 5 min. For caspase 8 immunoprecipitation, 4 μg anti-Caspase 8 pAb (Santa Cruz, C-20) was incubated with 100 μl protein A/G agarose for 1 hr at RT. 3 million/ml H9 cells were treated with HSLs or left untreated. The samples were processed as in FADD IP. For cross-linking assay, CD4+ T cells isolated from C57BL/6 mice spleen or human THP-1 cells was stimulated with HSLs or left untreated, then cells were collected and cross-linked by 10 mM DTSSP at RT for 30 min and quenched with 1M Tris-HCl (pH7.5) for 15 min. […]

TNFR1 [2] = assay: DTSSP cross-linking assay, TNFR1; assay type: cell-based; conditions: crosslinker DTSSP, non-reducing condition
Description: as §2

TNFR1 [3] = assay: Lipid raft isolation, TNFR1 in detergent resistant domains; assay type: cell-based; conditions: human and mouse T cells
monocytic RAW264.7 = assay: Annexin V/PI apoptosis detection, RAW264.7; assay type: cell-based
Description: as §1

[4] = system: primary T cell and T cell line; assay: T cell activation (IL-2 release, CD69 expression); assay type: cell-based, mouse; conditions: induced by MHC class I and class II-restricted antigens or PMA plus ionophore
Description: as §1

caspases 8 and 3 = assay: Caspase 8 and 3 cleavage in human cells (Western blot); assay type: cell-based; conditions: human (FIGS. 3a and b)
RAW264.7 cells = assay: Phagocytosis assay; assay type: cell-based
Description: For Phagocytic assay, polystyrene beads were coated with BSA plus mouse anti-BSA Ab via commercial methods. Before experiment, RAW264.7 cells were cultured on clean glass slices in 24-hole plate with Opti-MEM. Cells were co-cultured with coated beads, centrifuged at 900 g, 4° C. for 5 min and cultured at 37° C. for 45 min. Then cells were fixed with 4% paraformaldehyde and stained with 488 nm anti-mouse fluorescent Ab for immunofluorescent imaging. For analysis, total number of beads on each cell was calculated under bright field, the number of beads which were not engulfed were calculated under fluorescent lighting.

Fcγ RIIA = assay: Quantum dot-based single particle tracking, Fcγ RIIA in Cos-1 cells; assay type: cell-based, human
Description: To track individual TNFR1 on the cell membrane, anti-TNFR1 IgG (was first papain digested to yield a Fab fragment. The Fab was then conjugated with biotin through the unique —SH at its C terminal. To prepare anti TNFR1 Fab QD conjugates, a solution of 0.7 nM anti TNFR1—Fab-biotin in 1 ml of DMEM was added drop-wise to 1 ml of 2 nM QD 605-streptavidin conjugate. Cell monolayers (50% confluent) previously serum starved for 1 hr were treated with 3OC12 HSL or left untreated and incubated with […] of the final anti TNFR1-Fab-QD solution at 25° C. for 2 min. The cells were then washed twice with PBS at 25° C., placed in serum-free medium, and loaded for imaging. For single-FcRγIIA tracking, Fc fragment was obtained by papain digestion of an anti-BSA IgG (Sigma Aldrich). Fc-QD conjugate was produced as described before. Cos-1 cells were transiently transfected with Fcγ RIIA plasmid, 24 hrs later, cells were stimulated with 3OC12 HSL or left untreated and incubated with […] of the final Fc-QD solution at 25° C. for 2 min. Quantum dot-labeled cells were imaged in TIRF mode. The fluorescence was excited at 488 nm and gated by a band-pass filter (575-640, Carl Zeiss). The excitation power was about 2 mW measured after the objective. Movies of 400 frames were acquired for each sample at a full-frame rate of 17 Hz. Individual trajectories were constructed by Utrack written in Matlab. Diffusion coefficient and plot area were calculated by customized programs written with Matlab. For motion pattern determination by MSD-t analysis 5: linear, simple Brownian diffusion; open-up parabolic, directed diffusion; open-down parabolic, restricted diffusion; and near zero, stationary.

Iκbα = Iκbα degradation in non-apoptotic Jurkat cells; assay type: cell-based

CCCCCCCCCC(=O)CC(=O)N[C@H]1CCOC1=O [3OC12 HSL, N-(3-oxo-dodecanoyl) homoserine lactone]
sensitivity to 3OC12 HSL (lymphoblast H9): relatively resistant
sensitivity to 3OC12 HSL (reticuloma A20): sensitive
FADD association with caspase 8 [1]: in complex with caspase 8
amount of band with approximate 3 times the molecular weight of TNFR1 monomer (TNFR1 [2]): rapidly increased
TNFR1 associated with lipid rafts (TNFR1 [3]): reduced
sensitivity to 3OC12 HSL (monocytic RAW264.7): sensitive
T cell activation measured by IL-2 release and CD69 expression [4]: suppress
caspase 8 and 3 cleavage (caspases 8 and 3): cleaved in a dose and time-dependent manner
attachment of beads to cells (RAW264.7 cells): not affected
phagocytosis of antibody-coated latex beads (RAW264.7 cells; without 3OC12 HSL 4.6): 2.6+/−0.2%
Fcγ RIIA motion pattern (Fcγ RIIA): higher percentage of Fcγ RIIA belonged to the simple and directed motions
Fcγ RIIA diffusion coefficient (Fcγ RIIA; without 3OC12 HSL 0.1056): 0.1564+/−0.006
area covered by Fcγ RIIA motion tracks (Fcγ RIIA; without 3OC12 HSL 0.6467): 0.9310+/−0.045
Iκbα degradation (Iκbα): degraded
